Measured values reported in PMC9905048 (Bioorganic & Medicinal Chemistry Letters, 2023).
Like-named read-outs stand apart in the source and are kept apart here.

Tests used:
Flu B/Lee/40 (Lee) = experiment: Cell-based antiviral assay against Flu B in MDCK cells; set-up: species or system influenza B virus
[1] = test system: SARS-CoV-2 (hCoV-19/Korea/KCDC-06/2020); experiment: Cell-based antiviral assay against SARS-CoV-2 in Vero cells; settings: ratio of EC50, in vitro
[2] = test system: DENV-2 replicon BHK-21 (DENV2-BHK) cells; format: cell-based
[3] = test system: cells of the SARS-CoV-2, Flu A/B and DENV-2 assays
[4] = in vitro, summary for SARS-CoV-2, Flu A/B and DENV-2 assays

Question: `CC(C)C(=O)ONc1ccn([C@@H]2O[C@H](CO)[C@@H](O)[C@H]2O)c(=O)n1` [8a, β-D-N^4-O-isobutyrylcytidine] was tested. Which “potency (EC50) against Flu B compared with T-705 and amantadine (AMT)” value (Flu B/Lee/40 (Lee)) did it give?
Answer: about 2 fold

Question: And the “potency against SARS-CoV-2 compared to NHC (1)” value [1]?
Answer: > 5 fold

Question: What about the “potency (EC50) against DENV-2 compared with T-705 and amantadine (AMT)” value [2] of the same molecule?
Answer: about 2 fold

Question: For `CC(C)(C)OC(=O)NNc1ccn([C@@H]2O[C@H](CO)[C@@H](O)[C@H]2O)c(=O)n1` [8b, C4-Boc-hyrazinyl cytidine], which cell cytotoxicity [3, 4] is on record?
Answer: > 100 µM

Question: For `Cl.NNc1ccn([C@@H]2O[C@H](CO)[C@@H](O)[C@H]2O)c(=O)n1` [compound 9, N ^4-aminocytidine], which cell cytotoxicity ([3]; African green monkey (Vero), hamster (BHK-21), dog (MDCK)) is on record?
Answer: > 100 µM

Question: Which cell cytotoxicity [3, 4] does the source give for C4-2‑hydroxylethyl cytidine [8c] here?
Answer: > 100 µM
